From patent publication US20210177814A1, “USE OF GUANABENZ OR DERIVATES THEREOF FOR THE TREATMENT OF TYPE I IFN-DEPENDENT PATHOLOGIES” (INSERM (Institut National de la Santé et de la Recherche …, priority 2018, published 2021)

Legend:
[1] = biological target: T1, hTLR7 (Homo sapiens, UniProt Q9NYK1); experiment: HEK-Blue hTLR7 SEAP reporter assay; assay type: cell-based; details: 5 μg/mL imiquimod, GBZ 50 μM
T1 construct: expressed in transfected cells; host or cells: HEK-Blue (HEK 293) hTLR7 reporter cells
T1 sequence (Q9NYK1 27-1049): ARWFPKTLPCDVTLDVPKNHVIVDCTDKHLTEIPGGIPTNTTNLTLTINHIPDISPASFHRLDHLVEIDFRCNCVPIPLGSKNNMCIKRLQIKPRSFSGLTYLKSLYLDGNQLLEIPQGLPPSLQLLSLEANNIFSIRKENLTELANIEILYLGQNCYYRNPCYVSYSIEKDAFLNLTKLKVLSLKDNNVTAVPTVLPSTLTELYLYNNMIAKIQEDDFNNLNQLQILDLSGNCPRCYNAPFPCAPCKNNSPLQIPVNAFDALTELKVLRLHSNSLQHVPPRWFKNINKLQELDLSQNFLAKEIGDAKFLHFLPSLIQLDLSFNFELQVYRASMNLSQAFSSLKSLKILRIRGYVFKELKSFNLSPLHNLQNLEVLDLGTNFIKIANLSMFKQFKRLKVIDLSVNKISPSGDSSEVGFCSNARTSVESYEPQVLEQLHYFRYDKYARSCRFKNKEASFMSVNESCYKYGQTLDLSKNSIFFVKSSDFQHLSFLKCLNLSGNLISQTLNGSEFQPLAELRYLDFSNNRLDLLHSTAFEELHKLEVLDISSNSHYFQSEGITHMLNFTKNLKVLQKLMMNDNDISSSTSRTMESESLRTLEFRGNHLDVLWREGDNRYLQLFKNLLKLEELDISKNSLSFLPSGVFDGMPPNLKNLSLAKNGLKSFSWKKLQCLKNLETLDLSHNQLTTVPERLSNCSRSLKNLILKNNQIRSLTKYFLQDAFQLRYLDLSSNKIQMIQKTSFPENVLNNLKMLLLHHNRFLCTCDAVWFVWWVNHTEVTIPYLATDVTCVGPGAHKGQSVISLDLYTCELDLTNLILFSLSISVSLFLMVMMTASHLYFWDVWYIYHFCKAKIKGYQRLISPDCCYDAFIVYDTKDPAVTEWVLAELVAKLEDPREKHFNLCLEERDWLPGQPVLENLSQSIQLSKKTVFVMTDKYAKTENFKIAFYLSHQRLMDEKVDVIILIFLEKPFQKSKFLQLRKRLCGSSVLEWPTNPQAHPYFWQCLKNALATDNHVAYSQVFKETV
Experimental: FIG. 1: Guanabenz inhibits TLR3 and TLR9 activation in mouse Flt3-L DCs and human blood pDCs. A) Sorted bone marrow derived Flt3L-DCs were activated for 6 h with 10 μg/mL poly I:C LMW (TLR3 in DC1) or 1 μM ODN 1585 (TLR9 in pDCs). GBZ was added at 50 μM and inhibited IFN-β and Interleukin-6 (IL-6) production in activated cells. B) hTLR4, hTLR3, hTLR9 and hTLR7 expressed in the reporter HEK-Blue™ cells are inhibited by GBZ. TLR-expressing HEK-Blue™ cells were respectively activated with 100 ng/mL LPS, 10 μg/mL poly I:C LMW, 2.5 μM ODN 2006 or 5 μg/mL imiquimod, respectively. GBZ was added at 50 μM. TLR activity was measured indirectly through SEAP activity as absorbance at 405 nm. […] Protein concentration of IFN-α and TNF-α secreted were measured at the indicated time points or at 16 h. […]
Given the efficiency of GBZ on mouse TLR3 and TLR9, we turned to human TLRs, in order to extend the relevance of our observations. GBZ-mediated inhibition was first evaluated on NF-kB signaling by monitoring secreted alkaline phosphatase (SEAP) reporter levels in HEK-293 cells expressing TLR3, TLR4, TLR7, TLR9 (FIG. 1B). […] The functionality of the TLR9 transduction pathway was next evaluated by using phospho-flow detection of 40S ribosomal protein S6 (rpS6) phosphorylation, a well characterized early signaling event down-stream of TLR activation by LPS or viruses.

[2] = mouse, cited from earlier work

NC(N)=N/N=C/c1c(Cl)cccc1Cl [GBZ, 2-(2,6-dichlorobenzylidene)-hydrazinecarboximidamide]
TLR7-dependent activation of the SEAP reporter [1]: inhibited | spinal cord accumulation ([2]; several hours after single i.p. bolus 2 mg/kg): approximately 7 μM | plasma half-life ([2]; single i.p. bolus 2 mg/kg): 1.8 h
